Laboratory results as given in article PMC10650955, “α-Aminophosphonate inhibitors of metallo-β-lactamases NDM-1 and VIM-2” (RSC Medicinal Chemistry, 2023).
Where a name gives a salt, the structure may show the parent alone.

Key:
NDM-1 = molecular target: T1, NDM-1 (Klebsiella pneumoniae, UniProt C7C422); assay: Dose rate inhibition studies for IC50 determination, NDM-1 enzymatic assay; assay type: biochemical; conditions: Enzyme IC50 NDM-1, 10 nM NDM-1, 100 μM ZnCl2, imipenem substrate, inhibitor 0-800 μM, 3 parallel measurements; N.I. = no enzyme inhibitory activity observed
T1 construct: made in house
T1 sequence (C7C422 29-270 limits assumed): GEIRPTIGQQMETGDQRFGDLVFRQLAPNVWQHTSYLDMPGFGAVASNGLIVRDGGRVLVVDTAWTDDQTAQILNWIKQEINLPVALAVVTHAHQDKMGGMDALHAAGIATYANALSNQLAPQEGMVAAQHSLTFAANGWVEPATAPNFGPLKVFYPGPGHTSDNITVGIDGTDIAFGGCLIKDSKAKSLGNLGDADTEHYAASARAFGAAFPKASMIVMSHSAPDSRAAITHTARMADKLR
Description: (§1) The […] synthesized compounds 5a–l were tested for their inhibitory activities against NDM-1, VIM-2 (Table 1), and GIM-1 in an in vitro enzymatic assay (ESI ^†).[41] The inhibitory activity was measured using enzyme concentrations of 0.1 nM VIM-2, 10 nM NDM-1 or 1 nM GIM-1, with an excess Zn(II) (100 μM, see Experimental methods), with inhibitor compounds with concentrations from 0 to 800 μM. Each data point was measured in triplicates. […] This is in line with previous reports.[42,43]
(§2) A 100 μl solution with buffer (50 mM HEPES (pH 7.2), 100 μM ZnCl2, 2.5% DMSO), purified enzyme (0.1 nM VIM-2, 10 nM NDM-1 or 1 nM GIM-1) and 800–0 μM inhibitor was incubated in a 96 well plate at 25 °C for 5 min. In addition, the enzyme buffer contained 400 μg ml^−1 bovine serum albumin (BSA) to prevent protein unfolding and loss of activity due to low concentrations.[67,68] 100 μM of the reporter substrate nitrocefin (VIM-2, GIM-1) or imipenem (NDM-1) was added to the enzyme–inhibitor solution and the increase in absorbance at 482 nm (nitrocefin) or 300 nm (imipenem) was recorded on a Spectramax M4 spectrophotometer (Molecular Devices). Each data point was performed in triplicates and the initial velocity for each inhibitor concentration was analyzed by a log [inhibitor] vs. response curve fitting to calculate IC50 in GraphPad Prism 9.2 software.

VIM-2 = molecular target: T2, VIM-2 (Escherichia coli, UniProt Q5U7L7); assay: Dose rate inhibition studies for IC50 determination, VIM-2 enzymatic assay; assay type: biochemical; conditions: Enzyme IC50 VIM-2, 0.1 nM VIM-2, 100 μM ZnCl2, nitrocefin substrate, inhibitor 0-800 μM, 3 parallel measurements; N.I. = no enzyme inhibitory activity observed
T2 construct: made in house
Description: as §1, §2

15N-labelled NDM-1 = molecular target: T3, 15N-labelled NDM-1 (Klebsiella pneumoniae, UniProt C7C422); assay: 1H,15N HSQC NMR chemical shift perturbation titration, NDM-1; assay type: binding
T3 construct: made in house
T3 sequence (C7C422 29-270 limits assumed): as above
Description: (§3) Solution NMR spectroscopy is a powerful tool to assess protein–ligand interactions under close to physiological conditions.[47] We, therefore, performed NMR chemical shift perturbation (CSP, for details, see section S8, ESI ^†) experiments to identify the amino acid residues of NDM-1 and VIM-2 that are involved in inhibitor binding, making use of the previously published protein assignments.[48,49] Titrations were conducted using ^15N-labelled proteins with 0, 0.5, 1, 2, 4, 8, and 16 equiv. of 5 inhibitors for NDM-1 and of 7 inhibitors for VIM-2.
(§4) For the titrations, ^15N-labelled NDM-1 and ^15N-labelled VIM-2 (250 μM), and titrated ligands (0.5 equiv. in 1 μL) were prepared in the same buffer as the protein (20 mM KPO4, 0.1 mM ZnCl2, pH 7.0 with 10% D2O and 2.5% DMSO-d6). ^1H,^15N HSQC spectra were acquired with 128 × 1024 complex points (F1 × F2) and spectral width of 9090 × 2740 Hz on ^15N-labeled NDM-1/VIM-2 and with every titration step up to 1 : 16 ratio between protein : ligand (0, 0.5, 1, 2, 4, 8, and 16 equiv. of ligand). All experiments were recorded on a Bruker 600 MHz spectrometer at 310 K equipped with a 5 mm TCI cryogenic probe. The NMR data were processed on the MestReNova software with the Mnova Binding plugin. The weighted average chemical shift perturbations (CSP) for the backbone amides were calculated from the observed chemical shift differences in the proton and nitrogen dimensions using the equation (chemical shift scaling factors: FH = 1, FN = 0.156) CSP = Δδ1H,15N = [drawing 13] .
(§5) 7. Chemical shift perturbation histograms
(§6) Chemical shift perturbation was calculated according equation (1) 2
(§7) CSP = Δδ(1H,15N) = √(Δδ1H2 + (1⁄R × Δδ15N2) Rscale = 6.5 (1)
(§8) Where Δδ1H is the chemical shift change for proton dimension, Δδ15N is the chemical shift change for nitrogen dimension, Rscale is a
(§9) The chemical shift perturbations (CSP) were classified as significant (SSP) when the observed Δδ(1H,15N) was greater than the population
(§10) mean plus the standard deviation (µ+1σ) – solid line; (µ+2σ) – dashed line, and (µ+3σ) – dashed line.
(§11) Further on, Kd was calculated according: 3
(§12) ([P]+[L]+Kd)− √([P]+[L]+Kd)2−4[P][L]
(§13) ΔδmaxΔδobs = Δδmax 2[P] (2)
(§14) Where Kd is the dissociation constant, [P] and [L] are protein and ligand concentrations, respectively. Δδmax were estimated in
(§15) MestReNova by extrapolation of the obser ved chemical shift differences Δδobs.

15N-labelled VIM-2 = molecular target: T4, 15N-labelled VIM-2 (Escherichia coli, UniProt Q5U7L7); assay: 1H,15N HSQC NMR chemical shift perturbation titration, VIM-2; assay type: binding; conditions: VIM-2 Kd, 0-16 equiv. ligand, pH 7.0, 310 K
T4 construct: made in house
Description: as §3, §4, §5, §6, §7, §8, §9, §10, §11, §12, §13, §14, §15

O=C(NC(C1CCCCN1)P(=O)(O)O)c1ccsc1 (centres unmarked) [Compound 5c-1, (Piperidin-2-yl(thiophene-3-carboxamido)methyl)phos-phonic acid hydrochloride] showed an IC50 (NDM-1) of 219 ± 14 µM, an IC50 (VIM-2) of 33 ± 3 µM and a Kd (15N-labelled NDM-1; Estimated binding constant (Kd), residue 070F, Table S5, per-residue fit, NDM-1 070F) of 15.2 mM. The Kd (15N-labelled NDM-1; Estimated binding constant (Kd), residue 091T, Table S5, per-residue fit, NDM-1 091T) was 4.17 mM, the Kd (15N-labelled NDM-1; Estimated binding constant (Kd), residue 108E, Table S5, per-residue fit, NDM-1 108E) was 4.5 mM and the Kd (15N-labelled NDM-1; Estimated binding constant (Kd), residue 119T, Table S5, per-residue fit, NDM-1 119T) was 10.7 mM. For the same molecule, the Kd (15N-labelled NDM-1; Estimated binding constant (Kd), residue 123Q, Table S5, per-residue fit, NDM-1 123Q) was 1.69 mM, the Kd (15N-labelled NDM-1; Estimated binding constant (Kd), residue 124D, Table S5, per-residue fit, NDM-1 124D) was 5.76 mM and the Kd (15N-labelled NDM-1; Estimated binding constant (Kd), residue 127G, Table S5, per-residue fit, NDM-1 127G) was 10.8 mM. The Kd (15N-labelled NDM-1; Estimated binding constant (Kd), residue 143A, Table S5, per-residue fit, NDM-1 143A) was 8.49 mM, the Kd (15N-labelled NDM-1; Estimated binding constant (Kd), residue 149A, Table S5, per-residue fit, NDM-1 149A) was 1.76 mM and the Kd (15N-labelled NDM-1; Estimated binding constant (Kd), residue 152E, Table S5, per-residue fit, NDM-1 152E) was 3.85 mM. It also gave a Kd (15N-labelled NDM-1; Estimated binding constant (Kd), residue 159H, Table S5, per-residue fit, NDM-1 159H) of 11.7 mM, a Kd (15N-labelled NDM-1; Estimated binding constant (Kd), residue 160S, Table S5, per-residue fit, NDM-1 160S) of 5.4 mM and a Kd (15N-labelled NDM-1; Estimated binding constant (Kd), residue 188G, Table S5, per-residue fit, NDM-1 188G) of 15.8 mM. The Kd (15N-labelled NDM-1; Estimated binding constant (Kd), residue 191S, Table S5, per-residue fit, NDM-1 191S) was 0.48 mM, the Kd (15N-labelled NDM-1; Estimated binding constant (Kd), residue 194I, Table S5, per-residue fit, NDM-1 194I) was 6.26 mM and the Kd (15N-labelled NDM-1; Estimated binding constant (Kd), residue 197G, Table S5, per-residue fit, NDM-1 197G) was 1.51 mM. It also gave a Kd (15N-labelled NDM-1; Estimated binding constant (Kd), residue 205F, Table S5, per-residue fit, NDM-1 205F) of 3.19 mM, a Kd (15N-labelled NDM-1; Estimated binding constant (Kd), residue 206G, Table S5, per-residue fit, NDM-1 206G) of 3.95 mM and a Kd (15N-labelled NDM-1; Estimated binding constant (Kd), residue 211K, Table S5, per-residue fit, NDM-1 211K) of 10 mM. The Kd (15N-labelled NDM-1; Estimated binding constant (Kd), residue 213S, Table S5, per-residue fit, NDM-1 213S) was 9.53 mM, the Kd (15N-labelled NDM-1; Estimated binding constant (Kd), residue 214K, Table S5, per-residue fit, NDM-1 214K) was 6.4 mM and the Kd (15N-labelled NDM-1; Estimated binding constant (Kd), residue 217S, Table S5, per-residue fit, NDM-1 217S) was 11.8 mM. The Kd (15N-labelled NDM-1; Estimated binding constant (Kd), residue 228H, Table S5, per-residue fit, NDM-1 228H) was 17.9 mM, the Kd (15N-labelled NDM-1; Estimated binding constant (Kd), residue 229Y, Table S5, per-residue fit, NDM-1 229Y) was 6.74 mM and the Kd (15N-labelled NDM-1; Estimated binding constant (Kd), residue 230A, Table S5, per-residue fit, NDM-1 230A) was 11.5 mM. It also gave a Kd (15N-labelled NDM-1; Estimated binding constant (Kd), residue 232S, Table S5, per-residue fit, NDM-1 232S) of 10.2 mM, a Kd (15N-labelled NDM-1; Estimated binding constant (Kd), residue 248M, Table S5, per-residue fit, NDM-1 248M) of 36.6 mM and a Kd (15N-labelled NDM-1; Estimated binding constant (Kd), residue 249S, Table S5, per-residue fit, NDM-1 249S) of 4.15 mM. It also gave a Kd (15N-labelled NDM-1; Estimated binding constant (Kd), residue 251S, Table S5, per-residue fit, NDM-1 251S) of 15.4 mM, a Kd (15N-labelled NDM-1; Estimated binding constant (Kd), residue 254D, Table S5, per-residue fit, NDM-1 254D) of 5.56 mM and a Kd (15N-labelled NDM-1; Estimated binding constant (Kd), residue 255S, Table S5, per-residue fit, NDM-1 255S) of 10.6 mM. It also gave a Kd (15N-labelled NDM-1; NDM-1 Kd, NMR chemical shift perturbation, 0-16 equiv. ligand, pH 7.0, 310 K) of 3.1 ± 0.3 mM and a Kd (15N-labelled VIM-2) of 400 ± 30 µM.
